Key:
AKR1C3 [1] = target: T1, AKR1C3 (Homo sapiens, UniProt P42330); assay: Activation by the aldoketo reductase AKR1C3, LC/MS/MS of % remaining; type: biochemical; details: 5 μM, 25 μg/mL AKR1C3, 2 mM NADPH, 37° C., up to 120 min, FIG. 2
T1 sequence (P42330 1-323): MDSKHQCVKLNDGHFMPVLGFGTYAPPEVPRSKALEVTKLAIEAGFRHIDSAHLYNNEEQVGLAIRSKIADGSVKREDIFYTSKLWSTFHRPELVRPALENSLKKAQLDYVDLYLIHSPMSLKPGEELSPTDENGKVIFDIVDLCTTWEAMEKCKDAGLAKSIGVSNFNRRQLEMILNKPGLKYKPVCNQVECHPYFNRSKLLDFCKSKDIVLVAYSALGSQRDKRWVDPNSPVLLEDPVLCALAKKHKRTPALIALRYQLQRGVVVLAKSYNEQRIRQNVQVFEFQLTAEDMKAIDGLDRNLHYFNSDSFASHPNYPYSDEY
Experimental: Recombinant human AKR1C3 was diluted to 25 μg/mL in phosphate buffered saline (PBS), pH 7.4 (37° C.), containing 2 mM NADPH. TH2870 or progesterone (positive control) in 30% methanol/70% water was added to the reaction mixture at a final concentration of 5 μM and incubated at 37° C. for 120 minutes. At various times up to 120 min, 50 μL of the reaction mixture was taken and 200 μL acetonitrile containing propranolol as internal standard was added, vortex-mixed and centrifuged for 10 min. The resulting supernatant (5 μL) was injected into a LC/MS/MS for quantitation of % remaining TH 2870 and progesterone. The compounds were tested in duplicates.

AKR1C3 [2] = target: T1, AKR1C3; details: cited from earlier work
[3] = human, in vivo; cited from earlier work
[4] = test system: HepG2-GFP human hepatocellular carcinoma; assay: Orthotopic HepG2-GFP human hepatocellular carcinoma mouse model, tumor burden; type: in vivo, nude mice
Experimental: Female athymic nude mice (6 weeks of age) were used in this study. The animals were purchased from Beijing HFK Bioscience, Co., Ltd and maintained in a High Efficiency Particulate Air Filter (HEPA) filtered environment with cages, food, and bedding sterilized by irradiation or autoclaving. A total of 32 nude mice were used for the study. HepG2-GFP human hepatocellular carcinoma cells (AntiCancer, Inc., San Diego, Calif.) were incubated with RPMI-1640 (Gibco-BRL, Life Technologies, Inc.), which contained 10% FBS. Cells were grown in a CO2 Water Jacketed Incubator (Forma Scientific) maintaining 37° C. and a 5% CO2/95% air atmosphere. Cell viability was determined by trypan blue exclusion analysis. Five female athymic nude mice were injected subcutaneously with a single dose of 5×10^6 HepG2-GFP cells. Tumors were harvested when their size reached 1 cm^3 and the tumor tissues were then cut into small fragments of 1 mm^3. Forty female nude mice were implanted orthotopically with a single piece of tumor fragment, which was derived from a subcutaneous tumor model of HepG2-GFP human hepatocellular carcinoma. The tumor tissue was orthotopically implanted in the right lobe of the liver in each mouse by SOI (Surgical Orthotopic Implantation). […]
During the period of the study, all of the experimental mice were checked daily for mortality or signs of morbidity. […] The body weights of the mice were measured twice weekly during the study period. […] Comparisons of body weights and tumor burdens in different groups were analyzed using the Student's t-test with an α=0.05 (two-sided). […]
The progressions of orthotopic HepG2-GFP hepatocellular carcinoma in different groups were monitored by real time imaging. […] Typical tumor images at the end of the study in each group and tumor growth curves derived from the signals of tumor fluorescence, which were analyzed using the Power Station software (INDEC Biosystems, CA, USA), are shown in FIG. 6 and FIG. 7, respectively
Tumor IR was calculated based on the final average tumor weights according to the formula: IR (%)=(1−treatment(t)/control(c))×100

[5] = Body weight and toxicity in the orthotopic HepG2-GFP mouse model; type: in vivo, nude mice; details: 30 mg/kg, Qdx35, gavage

Compound: CC(OP(=O)(N1CC1)N1CC1)c1ccc([N+](=O)[O-])c(Oc2cccc(C(=O)N(C)C)c2)c1 (racemic) [TH 2870, (R,S)-1-(3-(3-N,N-dimethylaminocarbonyl)phenoxyl-4-nitrophenyl)-1-ethyl-N,N′-bis(ethylene)phosphoramidate]
- disappearance (% remaining) in the presence of AKR1C3 (AKR1C3 [1]): rapid disappearance

Compound: CS(=O)(=O)OCCN(CCBr)c1c(C(=O)NCCOP(=O)(O)O)cc([N+](=O)[O-])cc1[N+](=O)[O-] [PR 104]
- substrate for AKR1C3 (AKR1C3 [2]): weak substrate
- efficacy in clinical trials [3]: ineffective

Compound: CC(=O)[C@H]1CC[C@H]2[C@@H]3CCC4=CC(=O)CC[C@]4(C)[C@H]3CC[C@]12C [Progesterone, reference compound]
- disappearance (% remaining) in the presence of AKR1C3 (AKR1C3 [1]): reduced slowly

Compound: CNC(=O)c1cc(Oc2ccc(NC(=O)Nc3ccc(Cl)c(C(F)(F)F)c3)cc2)ccn1 [Sorafenib, sorafenib]
- average tumor size, % less than in the negative control group ([4]; 30 mg/kg, Qdx35, gavage, P=0.0577): about 39%
- inhibitory effect on orthotopic HepG2-GFP model ([4]; at tested dosages): had inhibitory effect
- Body Weight Growth Rate [5]: 21%
- Day 0, Body Weight (mean ± sd) [5]: 15.1 ± 1.1 g
- Day 35, Body Weight (mean ± sd) [5]: 18.2 ± 0.8 g
- toxicity to the experimental mice ([5]; body weight lower than negative control): a certain degree of toxicity

From US10409869B2, “(R)- and (S)-1-(3-(3-N,N-dimethylaminocarbonyl)phenoxyl-4-nitrophenyl)-1-ethyl-N,N'-bis (ethylene)phosphoramidate, compositions and methods for their use and preparation” (OBI Pharma, Inc., priority 2015, dated 2019)
